Patent US10485797B2, “Treatment of pemphigus” (Principia Biopharma Inc., priority 2014, dated 2019)
Read-outs that look alike come from different tables or passages of the source.

Tests used:
[1] = cited from earlier work
[2] = ANCA-associated vasculitis, cited from earlier work
[3] = cited from earlier work; for onset of effect / clinical response / time of maximal effect: pemphigus vulgaris
pemphigus folliaceus = test: Dog Pemphigus Foliaceus Study; format: in vivo; conditions: for overall efficacy and safety in treatment of PF: single agent
Method: A 30 kg Doberman dog with a characteristic first presentation of pemphigus folliaceus on the nose and paws was administered an oral dose of 500 mg daily of the BTK inhibitor (R,E)-2-(3-(4-amino-3-(2-fluoro-4-phenoxyphenyl)-1H-pyrazolo[3,4-d]-pyrimidin-1-yl)piperidine-1-carbonyl)-4,4-dimethylpent-2-enenitrile instead of the usual treatment for pemphigus of high dose corticosteroids (typically 1-2 mg/kg).
The dog responded clinically to the drug as a monotherapy within three days, with improved eating and ambulation noted by the owner.

BTK = target: T1, BTK (Canis lupus familiaris, UniProt A0A8I3P3Z9); test: BTK occupancy in blood of the treated dog; format: in vivo; conditions: 30 kg Doberman dog, oral 500 mg daily; blood taken 24 hours after the first dose; read-out: level of BTK occupancy 24 hours after each dose
T1 construct: from tissue; host or cells: blood of the treated Doberman dog
T1 sequence (A0A8I3P3Z9 1-664): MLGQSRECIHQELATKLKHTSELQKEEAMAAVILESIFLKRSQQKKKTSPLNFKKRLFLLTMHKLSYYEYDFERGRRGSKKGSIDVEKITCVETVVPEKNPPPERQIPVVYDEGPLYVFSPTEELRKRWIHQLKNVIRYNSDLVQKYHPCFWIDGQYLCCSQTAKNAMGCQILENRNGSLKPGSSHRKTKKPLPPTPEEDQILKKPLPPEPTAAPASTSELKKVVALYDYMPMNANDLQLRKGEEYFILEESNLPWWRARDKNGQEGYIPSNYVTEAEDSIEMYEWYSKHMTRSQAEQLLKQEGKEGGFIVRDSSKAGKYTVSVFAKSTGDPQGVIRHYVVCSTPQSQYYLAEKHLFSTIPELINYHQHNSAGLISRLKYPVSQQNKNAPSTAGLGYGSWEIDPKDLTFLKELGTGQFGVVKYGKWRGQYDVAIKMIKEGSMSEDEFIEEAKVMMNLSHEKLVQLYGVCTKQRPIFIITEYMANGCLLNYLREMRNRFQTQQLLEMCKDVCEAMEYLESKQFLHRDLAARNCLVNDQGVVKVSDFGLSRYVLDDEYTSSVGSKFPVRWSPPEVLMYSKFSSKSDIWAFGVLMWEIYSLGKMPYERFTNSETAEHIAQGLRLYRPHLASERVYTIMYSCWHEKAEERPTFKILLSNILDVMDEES

Belimumab: an anti-Blys antibody
patients able to reduce corticosteroid use to <7.5 mg of prednisone ([1]; chronic SLE, week 40-52): ≤ 21% of patients (Benlysta US Product
effect on improvement of chronic SLE [1]: modest and delayed effect on improvement

Rituximab: anti-CD20 antibody rituximab, approved for treatment of B cell malignancies
cases achieving remission ([2]; despite concomitant use of corticosteroids for 5 months): in only 64% of cases despite concomitant use
onset of effect [2]: Rituximab has delayed effect in ANCA-
side effects in treated patients ([3]; patients treated with rituximab): serious side effects such as pneumonia
onset of effect / clinical response [3]: Rituximab has delayed effect in pemphigus
time of maximal effect [3]: vulgaris with maximal effect at 8-12 weeks
onset of effect / clinical response ([3]; listed as rituximab): significant delay in clinical response
time of maximal effect ([3]; listed as rituximab): 8-12 weeks

CC(C)(C)/C=C(\C#N)C(=O)N1CCC[C@@H](n2nc(-c3ccc(Oc4ccccc4)cc3F)c3c(N)ncnc32)C1 [(R,E)-2-(3-(4-amino-3-(2-fluoro-4-phenoxyphenyl)-1H-pyrazolo[3,4-d]-pyrimidin-1-yl)piperidine-1-carbonyl)-4,4-dimethylpent-2-enenitrile]
manifestation of clinical response compared with systemic corticosteroid therapy (pemphigus folliaceus; dog PF): as rapid and comparable to that observed with systemic corticosteroid therapy
corticosteroid-like adverse effects (polyuria, polydipsia, polyphagia or weight gain) (pemphigus folliaceus; dog PF, oral 500 mg daily): none and No well-known corticosteroid-like adverse effects
skin lesions by four weeks (pemphigus folliaceus; dog PF, oral 500 mg daily, four weeks): completely healed
time to clinical response (improved eating and ambulation) (pemphigus folliaceus; dog PF, oral 500 mg daily, monotherapy): three
clinical status at one week follow up visit (pemphigus folliaceus; dog PF, oral 500 mg daily, one week): improved general health and commencement of pemphigus lesion healing
clinical status after two weeks of treatment (pemphigus folliaceus; dog PF, oral 500 mg daily, two weeks): general health of the dog was excellent and skin lesions continued to improve
overall efficacy and safety in treatment of PF (pemphigus folliaceus): effective and safe
overall efficacy and safety in treatment of PF (pemphigus folliaceus; listed as (R, E)-2-(3-(4-amino-3-(2-fluoro-4-phenoxyphenyl)-1H-pyrazolo[3,4-d]-pyrimidin-1))): rapidly control dog PF
receptor occupancy at 500 mg (BTK): ~70%
